In PMC5218480 (PLoS ONE, 2017):

Test system: MV-4-11 cells
Experiment: Gene expression microarray analysis (Affymetrix PrimeView) and GSEA
Type: cell-based, human
Set-up: RFU PODN (11730768_x_at) / Fold change /veh PODN (11730768_x_at) / RFU LINC00158 (11744669_a_at) / Fold change /veh LINC00158 (11744669_a_at) / RFU DUSP10 (11751237_a_at) / Fold change /veh DUSP10 (11751237_a_at) / RFU ID3 (11757404_x_at) / Fold change /veh ID3 (11757404_x_at) / RFU PLEKHG5 (11737974_s_at) / Fold change /veh PLEKHG5 (11737974_s_at) / RFU LRRC4B (11730491_at) / Fold change /veh LRRC4B (11730491_at) / RFU GIMAP4 (11747438_a_at) / Fold change /veh GIMAP4 (11747438_a_at) / RFU KRT8 (11758183_x_at) / Fold change /veh KRT8 (11758183_x_at) / RFU CNN1 (11734310_a_at) / Fold change /veh CNN1 (11734310_a_at) / RFU VPS37D (11726825_at) / Fold change /veh VPS37D (11726825_at) / RFU C10orf10 (11716522_x_at) / Fold change /veh C10orf10 (11716522_x_at) / RFU KIR2DL2 /// KIR2DL4 /// KIR2DL5A /// KIR2DL5B /// KIR2DS1 /// KIR2DS2 /// KIR2DS3 /// KIR2DS4 /// KIR3DL3 /// KIR3DL3 /// KIR3DS1 (11738374_at) / Fold change /veh KIR2DL2 /// KIR2DL4 /// KIR2DL5A /// KIR2DL5B /// KIR2DS1 /// KIR2DS2 /// KIR2DS3 /// KIR2DS4 /// KIR3DL3 /// KIR3DL3 /// KIR3DS1 (11738374_at) / RFU C1QL1 (11718748_at) / Fold change /veh C1QL1 (11718748_at) / RFU TMPRSS4 (11747572_a_at) / Fold change /veh TMPRSS4 (11747572_a_at) / RFU HAMP (11756126_x_at) / Fold change /veh HAMP (11756126_x_at) / RFU RNFT2 (11725882_a_at) / Fold change /veh RNFT2 (11725882_a_at) / RFU NR4A2 (11747474_a_at) / Fold change /veh NR4A2 (11747474_a_at) / RFU ABCC12 (11746883_a_at) / Fold change /veh ABCC12 (11746883_a_at) / RFU TMEM136 (11760407_x_at) / Fold change /veh TMEM136 (11760407_x_at) / RFU CLDN22 /// WWC2 (11732394_at) / Fold change /veh CLDN22 /// WWC2 (11732394_at) / RFU HLA-DPB1 (11760878_x_at) / Fold change /veh HLA-DPB1 (11760878_x_at) / RFU SPINT1 (11716480_a_at) / Fold change /veh SPINT1 (11716480_a_at) / RFU GAP43 (11754022_s_at) / Fold change /veh GAP43 (11754022_s_at) / RFU A4GNT (11735810_at) / Fold change /veh A4GNT (11735810_at) / RFU PRB3 (11715151_x_at) / Fold change /veh PRB3 (11715151_x_at) / RFU TUBB4B (11761932_at) / Fold change /veh TUBB4B (11761932_at) / RFU CAPN14 (11732068_a_at) / Fold change /veh CAPN14 (11732068_a_at) / RFU TMCC2 (11721928_a_at) / Fold change /veh TMCC2 (11721928_a_at) / RFU IRGQ (11745062_a_at) / Fold change /veh IRGQ (11745062_a_at) / RFU FAM174B (11720279_a_at) / Fold change /veh FAM174B (11720279_a_at) / RFU TMPRSS4 (11748680_a_at) / Fold change /veh TMPRSS4 (11748680_a_at) / RFU FAM212B (11763350_a_at) / Fold change /veh FAM212B (11763350_a_at) / RFU PLEKHG5 (11743358_a_at) / Fold change /veh PLEKHG5 (11743358_a_at) / RFU ZSCAN30 (11745921_a_at) / Fold change /veh ZSCAN30 (11745921_a_at) / RFU CMKLR1 (11741424_a_at) / Fold change /veh CMKLR1 (11741424_a_at) / RFU LOC101060620 /// MAPK8IP1 (11723275_at) / Fold change /veh LOC101060620 /// MAPK8IP1 (11723275_at) / RFU SPTSSB (11747773_x_at) / Fold change /veh SPTSSB (11747773_x_at) / RFU PRSS12 (11739890_at) / Fold change /veh PRSS12 (11739890_at) / RFU BIN1 (11741810_x_at) / Fold change /veh BIN1 (11741810_x_at) / RFU WNT11 (11732464_a_at) / Fold change /veh WNT11 (11732464_a_at) / RFU C10orf10 (11716521_a_at) / Fold change /veh C10orf10 (11716521_a_at) / RFU C5orf56 (11738089_at) / Fold change /veh C5orf56 (11738089_at) / RFU CYB561 (11721691_x_at) / Fold change /veh CYB561 (11721691_x_at) / RFU ANKRD19P (11752326_a_at) / Fold change /veh ANKRD19P (11752326_a_at) / RFU OR2T12 /// OR2T33 /// OR2T8 (11738714_s_at) / Fold change /veh OR2T12 /// OR2T33 /// OR2T8 (11738714_s_at) / RFU VCAN (11748164_a_at) / Fold change /veh VCAN (11748164_a_at) / RFU JSRP1 (11732532_at) / Fold change /veh JSRP1 (11732532_at) / RFU KRTAP10-11 (11738290_x_at) / Fold change /veh KRTAP10-11 (11738290_x_at) / RFU MYO3A (11730013_a_at) / Fold change /veh MYO3A (11730013_a_at) / RFU EBF3 (11725865_a_at) / Fold change /veh EBF3 (11725865_a_at) / RFU CAMK2N1 (11719241_x_at) / Fold change /veh CAMK2N1 (11719241_x_at) / RFU C5orf56 (11738088_a_at) / Fold change /veh C5orf56 (11738088_a_at) / RFU OLFML3 (11715873_a_at) / Fold change /veh OLFML3 (11715873_a_at) / RFU LOC100653217 /// NTM (11731650_a_at) / Fold change /veh LOC100653217 /// NTM (11731650_a_at) / RFU MAPK11 (11762145_a_at) / Fold change /veh MAPK11 (11762145_a_at) / RFU FIZ1 (11724087_x_at) / Fold change /veh FIZ1 (11724087_x_at) / RFU OASL (11726364_x_at) / Fold change /veh OASL (11726364_x_at) / RFU SOX15 (11748057_x_at) / Fold change /veh SOX15 (11748057_x_at) / RFU CD79A (11719716_a_at) / Fold change /veh CD79A (11719716_a_at) / RFU HIST1H1D (11736915_at) / Fold change /veh HIST1H1D (11736915_at) / RFU CASKIN2 (11723855_a_at) / Fold change /veh CASKIN2 (11723855_a_at) / RFU LOC730098 (11760151_x_at) / Fold change /veh LOC730098 (11760151_x_at) / RFU OR4N2 (11742367_at) / Fold change /veh OR4N2 (11742367_at) / RFU PRRT2 (11749266_a_at) / Fold change /veh PRRT2 (11749266_a_at) / RFU SNX32 (11753110_a_at) / Fold change /veh SNX32 (11753110_a_at) / RFU CDHR5 (11726645_a_at) / Fold change /veh CDHR5 (11726645_a_at) / RFU RCAN1 (11760418_a_at) / Fold change /veh RCAN1 (11760418_a_at) / RFU FAM167A (11723789_a_at) / Fold change /veh FAM167A (11723789_a_at) / RFU FAM26E (11764081_at) / Fold change /veh FAM26E (11764081_at) / RFU ISYNA1 (11749810_s_at) / Fold change /veh ISYNA1 (11749810_s_at) / RFU ACY1 (11761880_at) / Fold change /veh ACY1 (11761880_at) / RFU 11764098_at / Fold change /veh 11764098_at / RFU SAMD14 (11745864_x_at) / Fold change /veh SAMD14 (11745864_x_at) / RFU NPB (11741838_a_at) / Fold change /veh NPB (11741838_a_at) / RFU TMPRSS6 (11731388_a_at) / Fold change /veh TMPRSS6 (11731388_a_at) / RFU KRTAP10-2 (11738614_at) / Fold change /veh KRTAP10-2 (11738614_at) / RFU ARHGAP8 /// PRR5-ARHGAP8 (11727945_x_at) / Fold change /veh ARHGAP8 /// PRR5-ARHGAP8 (11727945_x_at) / RFU KRTAP5-7 /// NADSYN1 (11734609_at) / Fold change /veh KRTAP5-7 /// NADSYN1 (11734609_at) / RFU RASL12 (11751679_a_at) / Fold change /veh RASL12 (11751679_a_at) / RFU CDKN2B (11736163_a_at) / Fold change /veh CDKN2B (11736163_a_at) / RFU PRF1 (11729649_at) / Fold change /veh PRF1 (11729649_at) / RFU, ZNF638 /// ZNF638-IT1 / Fold change vs veh, ZNF638 /// ZNF638-IT1 / RFU, PANK3 / Fold change vs veh, PANK3 / RFU, SH3YL1 / Fold change vs veh, SH3YL1 / RFU, ZEB2 / Fold change vs veh, ZEB2 / RFU, NRIP1 / Fold change vs veh, NRIP1 / RFU, PTTG1IP / Fold change vs veh, PTTG1IP / RFU, CAPN2 / Fold change vs veh, CAPN2 / RFU, MED14 / Fold change vs veh, MED14 / RFU, SNORA58 / Fold change vs veh, SNORA58 / RFU, C1orf63 / Fold change vs veh, C1orf63 / RFU, LRRFIP1 / Fold change vs veh, LRRFIP1 / RFU, NDUFAF7 / Fold change vs veh, NDUFAF7 / RFU, SLC12A2 / Fold change vs veh, SLC12A2 / RFU, IBTK / Fold change vs veh, IBTK / RFU, ESF1 / Fold change vs veh, ESF1 / Fold change vs veh, TMEM50B / RFU, TAOK1 / Fold change vs veh, TAOK1 / RFU, ACBD3 / Fold change vs veh, ACBD3 / RFU, TMA16 / Fold change vs veh, TMA16 / RFU, RWDD3 / Fold change vs veh, RWDD3 / RFU, BCAT1 / Fold change vs veh, BCAT1 / RFU, EDEM3 / Fold change vs veh, EDEM3 / RFU, TMEM33 / Fold change vs veh, TMEM33 / RFU, WDR75 / Fold change vs veh, WDR75 / RFU, AHCTF1 / Fold change vs veh, AHCTF1 / RFU, TFRC / Fold change vs veh, TFRC / RFU, ZDHHC17 / Fold change vs veh, ZDHHC17 / RFU, NOM1 / Fold change vs veh, NOM1 / RFU, ARL8B / Fold change vs veh, ARL8B / RFU, ZBTB11 / Fold change vs veh, ZBTB11 / RFU, TAMM41 / Fold change vs veh, TAMM41 / RFU, KIAA1704 /// LOC100996395 / Fold change vs veh, KIAA1704 /// LOC100996395 / RFU, ING1 / Fold change vs veh, ING1 / RFU, TRMT61B / Fold change vs veh, TRMT61B / RFU, FUBP3 / Fold change vs veh, FUBP3 / RFU, TP53 / Fold change vs veh, TP53 / RFU, TNKS2 / Fold change vs veh, TNKS2 / RFU, ZFP14 / Fold change vs veh, ZFP14 / RFU, ACTR2 / Fold change vs veh, ACTR2 / RFU, PPP3R1 / Fold change vs veh, PPP3R1 / RFU, PIK3R1 / Fold change vs veh, PIK3R1 / RFU, HNRNPA1 / Fold change vs veh, HNRNPA1 / RFU, RNF170 / Fold change vs veh, RNF170 / RFU, ZNF28 / Fold change vs veh, ZNF28 / RFU, RNGTT / Fold change vs veh, RNGTT / RFU, OGT / Fold change vs veh, OGT / RFU, BRD1 / Fold change vs veh, BRD1 / RFU, MARS / Fold change vs veh, MARS / RFU, ZNF655 / Fold change vs veh, ZNF655 / RFU, FAHD1 / Fold change vs veh, FAHD1 / RFU, BDP1 / Fold change vs veh, BDP1 / RFU, LRRCC1 / Fold change vs veh, LRRCC1 / RFU, ARID1A / Fold change vs veh, ARID1A / RFU, ZNF146 / Fold change vs veh, ZNF146 / RFU, ZNF330 / Fold change vs veh, ZNF330 / RFU, GPN3 / Fold change vs veh, GPN3 / RFU, C9orf123 / Fold change vs veh, C9orf123 / RFU, N4BP2L2 / Fold change vs veh, N4BP2L2 / RFU, ARFIP1 / Fold change vs veh, ARFIP1 / RFU, FAM179B / Fold change vs veh, FAM179B / RFU, BCL10 / Fold change vs veh, BCL10 / RFU, UHRF1BP1L / Fold change vs veh, UHRF1BP1L / RFU, BET1 / Fold change vs veh, BET1 / RFU, CNOT2 / Fold change vs veh, CNOT2 / RFU, ZNF268 / Fold change vs veh, ZNF268 / Fold change vs veh, ZNF507 / RFU, DGCR2 / Fold change vs veh, DGCR2 / RFU, WDSUB1 / Fold change vs veh, WDSUB1 / Fold change vs veh, HSP90B1 /// MIR3652 / RFU, ADSS / Fold change vs veh, ADSS / RFU, GK / Fold change vs veh, GK / RFU, ZNF148 / Fold change vs veh, ZNF148 / RFU, TAF9 / Fold change vs veh, TAF9 / RFU, SLC1A5 / Fold change vs veh, SLC1A5 / RFU, SLMO2 / Fold change vs veh, SLMO2 / RFU, ABCC4 / Fold change vs veh, ABCC4 / RFU, LOC101060439 /// RAP1B / Fold change vs veh, LOC101060439 /// RAP1B / RFU, RFX7 / Fold change vs veh, RFX7 / RFU, GTPBP10 / Fold change vs veh, GTPBP10 / RFU, CNEP1R1 / Fold change vs veh, CNEP1R1 / RFU, BIVM-ERCC5 /// ERCC5 / Fold change vs veh, BIVM-ERCC5 /// ERCC5 / RFU, ILF3 / Fold change vs veh, ILF3 / RFU 11762660_at / Fold change /veh 11762660_at / RFU VCAN (11757783_s_at) / Fold change /veh VCAN (11757783_s_at) / RFU DDX43 (11728927_at) / Fold change /veh DDX43 (11728927_at) / RFU KRT8 (11758188_x_at) / Fold change /veh KRT8 (11758188_x_at) / RFU NKD1 (11759106_at) / Fold change /veh NKD1 (11759106_at) / RFU SRD5A1 (11742802_a_at) / Fold change /veh SRD5A1 (11742802_a_at) / RFU TPSAB1 /// TPSB2 (11721975_s_at) / Fold change /veh TPSAB1 /// TPSB2 (11721975_s_at) / RFU GSTM3 (11746129_a_at) / Fold change /veh GSTM3 (11746129_a_at) / RFU IL23R (11737362_x_at) / Fold change /veh IL23R (11737362_x_at) / RFU TMEM51 (11727254_a_at) / Fold change /veh TMEM51 (11727254_a_at) / RFU PIWIL2 (11732686_x_at) / Fold change /veh PIWIL2 (11732686_x_at) / RFU ORM1 (11744905_x_at) / Fold change /veh ORM1 (11744905_x_at) / RFU CCDC152 (11743942_at) / Fold change /veh CCDC152 (11743942_at) / RFU ECM1 (11717891_a_at) / Fold change /veh ECM1 (11717891_a_at) / RFU IL23R (11748794_a_at) / Fold change /veh IL23R (11748794_a_at) / RFU TNFAIP8L3 (11732012_x_at) / Fold change /veh TNFAIP8L3 (11732012_x_at) / RFU MBOAT4 (11741988_at) / Fold change /veh MBOAT4 (11741988_at) / RFU 11764193_at / Fold change /veh 11764193_at / RFU TMEM53 (11763286_at) / Fold change /veh TMEM53 (11763286_at) / RFU MAGEB2 (11727129_at) / Fold change /veh MAGEB2 (11727129_at) / RFU TMEM200A (11744735_a_at) / Fold change /veh TMEM200A (11744735_a_at) / RFU CCDC152 (11751479_a_at) / Fold change /veh CCDC152 (11751479_a_at) / RFU FAM211A (11726209_a_at) / Fold change /veh FAM211A (11726209_a_at) / RFU RGS16 (11746705_a_at) / Fold change /veh RGS16 (11746705_a_at) / RFU VCAN (11755009_s_at) / Fold change /veh VCAN (11755009_s_at) / RFU RHOB (11743442_s_at) / Fold change /veh RHOB (11743442_s_at) / RFU RGS16 (11720943_a_at) / Fold change /veh RGS16 (11720943_a_at) / RFU RGS16 (11720944_at) / Fold change /veh RGS16 (11720944_at) / RFU, VPS4B / Fold change vs veh, VPS4B / RFU, CREB1 / Fold change vs veh, CREB1 / RFU, DNAJC13 / Fold change vs veh, DNAJC13 / RFU, GNAQ / Fold change vs veh, GNAQ / RFU, CDK5R1 / Fold change vs veh, CDK5R1 / RFU, ZRANB3 / Fold change vs veh, ZRANB3 / RFU, CUL4A / Fold change vs veh, CUL4A / RFU, CCNY / Fold change vs veh, CCNY / RFU, UFL1 / Fold change vs veh, UFL1 / RFU, COG3 / Fold change vs veh, COG3 / RFU, DIAPH2 / Fold change vs veh, DIAPH2 / RFU, SKA2 / Fold change vs veh, SKA2 / RFU, AFF3 / Fold change vs veh, AFF3 / RFU, LMF1 / Fold change vs veh, LMF1 / RFU, IPO11 / Fold change vs veh, IPO11 / RFU, DFFB / Fold change vs veh, DFFB / RFU, FOXP1 / Fold change vs veh, FOXP1 / RFU, CARD8 / Fold change vs veh, CARD8 / RFU, STRN3 / Fold change vs veh, STRN3 / RFU, ADK / Fold change vs veh, ADK / RFU, RASSF2 / Fold change vs veh, RASSF2 / RFU, WIPF1 / Fold change vs veh, WIPF1 / RFU, LARP1B / Fold change vs veh, LARP1B / RFU, RASA1 / Fold change vs veh, RASA1 / RFU, RB1 / Fold change vs veh, RB1 / RFU, PPFIA1 / Fold change vs veh, PPFIA1 / RFU, MAT2A / Fold change vs veh, MAT2A / RFU, CCT5 / Fold change vs veh, CCT5 / RFU, WDR92 / Fold change vs veh, WDR92 / RFU, CUX1 / Fold change vs veh, CUX1 / RFU, TTC7A / Fold change vs veh, TTC7A / RFU, TMEM135 / Fold change vs veh, TMEM135 / RFU, DEPTOR / Fold change vs veh, DEPTOR / RFU, CPM / Fold change vs veh, CPM / RFU, DNAJB6 / Fold change vs veh, DNAJB6 / RFU, CACNA2D3 / Fold change vs veh, CACNA2D3 / RFU, DTX4 / Fold change vs veh, DTX4 / RFU, TFCP2 / Fold change vs veh, TFCP2 / RFU, GMCL1 /// GMCL1P1 / Fold change vs veh, GMCL1 /// GMCL1P1 / RFU, AEBP2 / Fold change vs veh, AEBP2 / RFU, SNHG1 /// SNORD22 /// SNORD25 /// SNORD26 /// SNORD27 /// SNORD28 /// SNORD29 /// SNORD31 / Fold change vs veh, SNHG1 /// SNORD22 /// SNORD25 /// SNORD26 /// SNORD27 /// SNORD28 /// SNORD29 /// SNORD31 / Fold change (Aza/veh), C12orf56 (ProbeSet 11735607_a_at) / Fold change (ACY-1035/veh), C12orf56 (ProbeSet 11735607_a_at) / Fold change (Aza/veh), FGFR1OP (ProbeSet 11751329_s_at) / Fold change (ACY-1035/veh), FGFR1OP (ProbeSet 11751329_s_at) / Fold change (Aza/veh), VPS36 (ProbeSet 11739960_a_at) / Fold change (ACY-1035/veh), VPS36 (ProbeSet 11739960_a_at) / RFU SYPL1 (11715823_x_at) / Fold change /veh SYPL1 (11715823_x_at) / RFU IGFBP7 (11715501_s_at) / Fold change /veh IGFBP7 (11715501_s_at) / RFU REEP3 (11722064_at) / Fold change /veh REEP3 (11722064_at) / RFU IGLL1 (11728026_x_at) / Fold change /veh IGLL1 (11728026_x_at): dose or concentration left out as unconfirmed
Conditions: ProbeSet 11755436_x_at; LIST B

Nc1ncn([C@@H]2O[C@H](CO)[C@@H](O)[C@H]2O)c(=O)n1 [azacitidine]
RFU, ARID1A: 63.57 RFU
